Reference: PubChem BioAssay AID1259407 (Chemical Carcinogenesis Research Information System (CCRIS), 2018)
The source made the active and inactive calls. How the calls were made is not given here.

Test system: CCRIS mutagenicity, Ames/micronucleus/aberration tests
Assay: CCRIS mutagenicity studies
[1] = Test System: AMES SALMONELLA TYPHIMURIUM, Strain/Indicator: TA98, Metabolic Activation: NONE, Method: PREINCUBATION
[2] = Test System: AMES SALMONELLA TYPHIMURIUM, Strain/Indicator: TA100, Metabolic Activation: NONE, Method: PREINCUBATION
[3] = Test System: AMES SALMONELLA TYPHIMURIUM, Strain/Indicator: TA100, Metabolic Activation: NONE, Method: STANDARD PLATE
[4] = Test System: AMES SALMONELLA TYPHIMURIUM, Strain/Indicator: TA98, Metabolic Activation: NONE, Method: STANDARD PLATE
[5] = Test System: AMES SALMONELLA TYPHIMURIUM, Strain/Indicator: TA98, Metabolic Activation: RAT, LIVER, S-9, AROCLOR 1254, Method: STANDARD PLATE
[6] = Test System: AMES SALMONELLA TYPHIMURIUM, Strain/Indicator: TA100, Metabolic Activation: RAT, LIVER, S-9, AROCLOR 1254, Method: STANDARD PLATE

`Cc1ccc(N)c(N)c1` was tested, and the mutagenic call (Test System: AMES SALMONELLA TYPHIMURIUM, Strain/Indicator: TA97, Metabolic Activation: HAMSTER, LIVER, S-9, AROCLOR 1254 (10%), Method: PREINCUBATION) was “inactive; negative”, the mutagenic call (Test System: AMES SALMONELLA TYPHIMURIUM, Strain/Indicator: TA97, Metabolic Activation: NONE, Method: PREINCUBATION) was “inactive; negative” and the mutagenic call (Test System: AMES SALMONELLA TYPHIMURIUM, Strain/Indicator: TA97, Metabolic Activation: RAT, LIVER, S-9, AROCLOR 1254 (10%), Method: PREINCUBATION) was “active; positive”. The mutagenic call (Test System: AMES SALMONELLA TYPHIMURIUM, Strain/Indicator: TA98, Metabolic Activation: HAMSTER, LIVER, S-9, AROCLOR 1254 (10%), Method: PREINCUBATION) was “active; positive”, the mutagenic call [1] was “inactive; negative” and the mutagenic call (Test System: AMES SALMONELLA TYPHIMURIUM, Strain/Indicator: TA98, Metabolic Activation: RAT, LIVER, S-9, AROCLOR 1254 (10%), Method: PREINCUBATION) was “active; positive”. The mutagenic call (Test System: AMES SALMONELLA TYPHIMURIUM, Strain/Indicator: TA100, Metabolic Activation: HAMSTER, LIVER, S-9, AROCLOR 1254 (10%), Method: PREINCUBATION) was “active; positive”, the mutagenic call [2] was “inactive; negative” and the mutagenic call (Test System: AMES SALMONELLA TYPHIMURIUM, Strain/Indicator: TA100, Metabolic Activation: RAT, LIVER, S-9, AROCLOR 1254 (10%), Method: PREINCUBATION) was “active; positive”. The mutagenic call (Test System: AMES SALMONELLA TYPHIMURIUM, Strain/Indicator: TA1535, Metabolic Activation: HAMSTER, LIVER, S-9, AROCLOR 1254 (10%), Method: PREINCUBATION) was “inactive; negative”, the mutagenic call (Test System: AMES SALMONELLA TYPHIMURIUM, Strain/Indicator: TA1535, Metabolic Activation: NONE, Method: PREINCUBATION) was “inactive; negative” and the mutagenic call (Test System: AMES SALMONELLA TYPHIMURIUM, Strain/Indicator: TA1535, Metabolic Activation: RAT, LIVER, S-9, AROCLOR 1254 (10%), Method: PREINCUBATION) was “inactive; negative”.
In the case of `[Cl][La]([Cl])[Cl]`, the mutagenic call (Test System: E. COLI, Strain/Indicator: WP2 UVRA, Metabolic Activation: NONE, Method: SPOT TEST) was “inactive; negative”.
With `O=C(CBr)NCc1ccccc1` the mutagenic call (Test System: AMES SALMONELLA TYPHIMURIUM, Strain/Indicator: TA100, Metabolic Activation: MOUSE, LIVER, S-9, AROCLOR 1254, Method: STANDARD PLATE) was “active; positive” and the mutagenic call [3] was “inactive; negative”.
`CC12CCC(CC1)C(C)(C)O2` was tested, and the mutagenic call (End Point: IN VITRO CHROMOSOMAL ABERRATIONS, Test System: CHINESE HAMSTER OVARY CELLS, Metabolic Activation: NONE) was “inactive; negative; precipitation occurred at 663 ug/ml”, the mutagenic call (End Point: IN VITRO CHROMOSOMAL ABERRATIONS, Test System: CHINESE HAMSTER OVARY CELLS, Metabolic Activation: RAT, LIVER, S-9, AROCLOR 1254) was “inactive; negative; precipitation occurred at all doses” and the mutagenic call (Test System: AMES SALMONELLA TYPHIMURIUM, Strain/Indicator: TA97A, Metabolic Activation: NONE, Method: STANDARD PLATE) was “inactive; negative”. The mutagenic call (Test System: AMES SALMONELLA TYPHIMURIUM, Strain/Indicator: TA97A, Metabolic Activation: RAT LIVER S-9, AROCLOR 1254, Method: STANDARD PLATE) was “inactive; negative”, the mutagenic call [4] was “inactive; negative” and the mutagenic call (Test System: AMES SALMONELLA TYPHIMURIUM, Strain/Indicator: TA98, Metabolic Activation: RAT LIVER S-9, AROCLOR 1254, Method: STANDARD PLATE) was “inactive; negative”. The mutagenic call [3] was “inactive; negative”, the mutagenic call (Test System: AMES SALMONELLA TYPHIMURIUM, Strain/Indicator: TA100, Metabolic Activation: RAT LIVER S-9, AROCLOR 1254, Method: STANDARD PLATE) was “inactive; negative” and the mutagenic call (Test System: AMES SALMONELLA TYPHIMURIUM, Strain/Indicator: TA102, Metabolic Activation: NONE, Method: STANDARD PLATE) was “inactive; negative”. For the same molecule, the mutagenic call (Test System: AMES SALMONELLA TYPHIMURIUM, Strain/Indicator: TA102, Metabolic Activation: RAT LIVER S-9, AROCLOR 1254, Method: STANDARD PLATE) was “inactive; negative”, the mutagenic call (Test System: E. coli, Strain/Indicator: WP2 IC185 trpE65, Metabolic Activation: None, Method: Plate incorporation) was “inactive; negative” and the mutagenic call (Test System: E. coli, Strain/Indicator: WP2 IC202 trpE65 oxyR/pKM101, Metabolic Activation: None, Method: Plate incorporation) was “inactive; negative”.
For `O=CN(O)c1ccc(Br)cc1`, the mutagenic call [4] was “inactive; negative”, the mutagenic call [5] was “active; positive” and the mutagenic call [3] was “inactive; negative”. The mutagenic call [6] was “active; positive”.
`C=C1C[C@@]23CC[C@H]4[C@@](C)(CCC[C@@]4(C)C(=O)O[C@@H]4O[C@H](CO)[C@@H](O)[C@H](O)[C@H]4O)[C@@H]2CC[C@]1(O[C@@H]1O[C@H](CO)[C@@H](O)[C@H](O[C@@H]2O[C@H](CO)[C@@H](O)[C@H](O)[C@H]2O)[C@H]1O[C@@H]1O[C@@H](C)[C@H](O)[C@@H](O)[C@H]1O)C3` was tested, and the mutagenic call (Test System: AMES SALMONELLA TYPHIMURIUM, Strain/Indicator: TM677, Metabolic Activation: RAT, LIVER, S-9, AROCLOR 1254, Method: PREINCUBATION) was “inactive; negative”.
For `O=[N+]([O-])c1cc(CCl)cc([N+](=O)[O-])c1`, the mutagenic call [1] was “active; positive”, the mutagenic call (Test System: AMES SALMONELLA TYPHIMURIUM, Strain/Indicator: TA98, Metabolic Activation: RAT, LIVER, S-9, KANECHLOR 500, Method: PREINCUBATION) was “active; positive” and the mutagenic call [2] was “active; positive”. The mutagenic call (Test System: AMES SALMONELLA TYPHIMURIUM, Strain/Indicator: TA100, Metabolic Activation: RAT, LIVER, S-9, KANECHLOR 500, Method: PREINCUBATION) was “active; positive”.
In the case of `BrC(Br)C(Br)Br`, the mutagenic call (Test System: AMES SALMONELLA TYPHIMURIUM, Strain/Indicator: TA97, Metabolic Activation: NONE, Method: STANDARD PLATE) was “active; positive”, the mutagenic call (Test System: AMES SALMONELLA TYPHIMURIUM, Strain/Indicator: TA97, Metabolic Activation: RAT, LIVER, S-9, AROCLOR 1254, Method: STANDARD PLATE) was “active; positive” and the mutagenic call [4] was “inactive; negative”. The mutagenic call [5] was “active; positive”, the mutagenic call [3] was “inactive; negative” and the mutagenic call [6] was “active; positive”. The mutagenic call (Test System: AMES SALMONELLA TYPHIMURIUM, Strain/Indicator: TA104, Metabolic Activation: NONE, Method: STANDARD PLATE) was “inactive; negative”, the mutagenic call (Test System: AMES SALMONELLA TYPHIMURIUM, Strain/Indicator: TA104, Metabolic Activation: RAT, LIVER, S-9, AROCLOR 1254, Method: STANDARD PLATE) was “active; positive” and the mutagenic call (Test System: AMES SALMONELLA TYPHIMURIUM, Strain/Indicator: TA1530, Metabolic Activation: NONE, Method: PREINCUBATION) was “active; positive”.
With `CC1CNCC(C)O1` (centres undefined) the mutagenic call (Test System: AMES SALMONELLA TYPHIMURIUM, Strain/Indicator: TA98, Metabolic Activation: HAMSTER, LIVER, S-9, AROCLOR 1254, Method: PREINCUBATION) was “inactive; negative”, the mutagenic call [1] was “inactive; negative” and the mutagenic call (Test System: AMES SALMONELLA TYPHIMURIUM, Strain/Indicator: TA98, Metabolic Activation: RAT, LIVER, S-9, AROCLOR 1254, Method: PREINCUBATION) was “inactive; negative”. The mutagenic call (Test System: AMES SALMONELLA TYPHIMURIUM, Strain/Indicator: TA100, Metabolic Activation: HAMSTER, LIVER, S-9, AROCLOR 1254, Method: PREINCUBATION) was “inactive; negative”, the mutagenic call [2] was “inactive; negative” and the mutagenic call (Test System: AMES SALMONELLA TYPHIMURIUM, Strain/Indicator: TA100, Metabolic Activation: RAT, LIVER, S-9, AROCLOR 1254, Method: PREINCUBATION) was “inactive; negative”. The mutagenic call (Test System: AMES SALMONELLA TYPHIMURIUM, Strain/Indicator: TA1537, Metabolic Activation: HAMSTER, LIVER, S-9, AROCLOR 1254, Method: PREINCUBATION) was “inactive; negative”, the mutagenic call (Test System: AMES SALMONELLA TYPHIMURIUM, Strain/Indicator: TA1537, Metabolic Activation: NONE, Method: PREINCUBATION) was “inactive; negative” and the mutagenic call (Test System: AMES SALMONELLA TYPHIMURIUM, Strain/Indicator: TA1537, Metabolic Activation: RAT, LIVER, S-9, AROCLOR 1254, Method: PREINCUBATION) was “inactive; negative”.
